Results as given in patent US10654867B2 (Genentech, Inc., priority 2016, dated 2020).

Target: T1, estrogen receptor alpha (ESR1) in MCF7 breast cancer cells (Homo sapiens, UniProt P03372)
T1 sequence (P03372 1-595): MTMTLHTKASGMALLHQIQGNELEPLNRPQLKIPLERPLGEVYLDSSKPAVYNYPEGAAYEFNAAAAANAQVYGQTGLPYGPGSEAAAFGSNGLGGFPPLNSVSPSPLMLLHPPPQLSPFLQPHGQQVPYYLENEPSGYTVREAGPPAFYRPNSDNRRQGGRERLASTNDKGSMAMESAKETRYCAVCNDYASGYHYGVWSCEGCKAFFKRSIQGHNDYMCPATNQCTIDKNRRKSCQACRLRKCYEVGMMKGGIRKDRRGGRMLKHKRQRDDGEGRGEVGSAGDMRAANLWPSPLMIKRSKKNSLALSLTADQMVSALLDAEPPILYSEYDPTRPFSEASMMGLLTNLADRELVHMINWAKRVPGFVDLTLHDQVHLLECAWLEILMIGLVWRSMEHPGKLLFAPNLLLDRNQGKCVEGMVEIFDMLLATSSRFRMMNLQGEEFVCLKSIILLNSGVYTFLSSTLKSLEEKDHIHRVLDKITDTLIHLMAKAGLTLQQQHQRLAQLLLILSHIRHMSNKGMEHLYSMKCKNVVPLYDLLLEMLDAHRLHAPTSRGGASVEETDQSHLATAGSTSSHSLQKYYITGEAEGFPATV
Test: Breast Cancer Cell ERa High Content Fluorescence Imaging Degradation Assay (ER-alpha MCF7 HCS)
Format: cell-based
Design: endogenous in cells; host or cells: MCF7 breast cancer cells
Details: 4 hours, plateau of the maximal effect, DMSO and fulvestrant define 0% and 100% change in ESR1, Table 1a
Procedure: All of the exemplary Formula I, II, and III compounds in Tables 1a and 1b were made and characterized by LCMS [M+H]^+ (liquid chromatography mass spectroscopy) with detection of parent ion. All of the exemplary Formula I, II, and III compounds in Tables 1a and 1b were tested for binding to ERa (Estrogen Receptor alpha) and biological activity according to the assays, protocols, and procedures of Examples 901-907. ER-alpha MCF7 HCS Sinf (%) values in Tables 1a and 1b were measured by the Breast Cancer Cell ERa High Content Fluorescence Imaging Degradation Assay of Example 901. ER-alpha MCF7 HCS EC50 (μM) values in Tables 1a and 1b were measured by the in vitro cell proliferation assays described in Examples 902 and 903. The rat uterine wet weight assays of Examples 906 and 907 allow rapid determination of compound antagonist activity in an ER responsive tissue (immature rat uterus) while competing against the native ER ligand estradiol, i.e. antagonist mode (Ashby, J.; et al (1997) Regulatory toxicology and pharmacology: RTP, 25 (3):226-31). Exemplary Formula I, II, and III compounds in Tables 1a and 1b have the following structures, corresponding names (ChemBioDraw, Version 12.0.2, CambridgeSoft Corp., Cambridge Mass.), and biological activity. Where more than one name is associated with a Formula I, II, and III compound or intermediate, the chemical structure shall define the compound.
MCF7 breast cancer cells were seeded on day 1 at a density of 10,000 cells per well in 384 well poly-lysine coated tissue culture plate (Greiner # T-3101-4), in 50 μL/well RPMI (phenol red free), 10% FBS (Charcoal stripped), containing L-glutamine. On day 2, compounds were prepared at 2 compound source concentrations: 100 μM and 1 μM (ultimately to give 2 overlapping titration curves), in a Labcyte low dead volume plate, 10 μL/well, and 10 μL of DMSO in designated wells for backfill, and 5 μM Fulvestrant (control compound) in designated wells. Compounds and controls were dispensed using a Labcyte Echo acoustic dispenser to dispense compounds with a predefined serial dilution (1.8×, 10 point, in duplicate) and appropriate backfill and control compounds (final total volume transferred was 417.5 nL and compound dispense volume ranges from 2.5 nL to 417.5 nL; 0.84% DMSO (v/v) final), ultimately producing a concentration range from 0.05 nM to 835 nM. Cell plates were incubated at 37° C., for 4 hours. Fixation and permeabilization were carried out using a Biotek EL406 plate washer and dispenser as follows. Cells were fixed by addition of 15 μL of 16% paraformaldehyde (Electron Microscopy Sciences #15710-S) directly to the 50 μL cell culture medium in each well using the peristaltic pump 5 μL cassette on a Biotek EL406 (final concentration of formaldehyde was 3.7% w/v). Samples were incubated 30 minutes. Well contents was aspirated and 50 μL/well of Phosphate Buffered Saline (PBS) containing 0.5% w/v bovine serum albumen, 0.5% v/v Triton X-100 (Antibody Dilution Buffer) was added to each well. Samples were incubated for 30 minutes. Well contents were aspirated and washed 3 times with 100 μL/well of PBS. Immunofluorescence staining of estrogen receptor alpha (ESR1) was carried out using a Biotek EL406 plate washer and dispenser as follows. The well supernatant was aspirated from the wells and 25 μL/well of anti-ESR1 mAb (F10) (Santa Cruz sc-8002) diluted 1:1000 in Antibody Dilution Buffer was dispensed. Samples were incubated for 2 hours at room temperature. Samples were washed 4 times with 100 μL/well of PBS. 25 uL (microliters)/well of secondary antibody solution (Alexafluor 488 conjugate anti-mouse IgG (LifeTechnologies # A21202) diluted 1:1000 and Hoechst 33342 1 μg/ml diluted in Antibody Dilution Buffer) were dispensed into each well. Samples were incubated for 2 hours at room temperature. Samples were washed 3 times with 100 μL/well of PBS using a Biotek EL406. Quantitative fluorescence imaging of ESR1 was carried out using a Cellomics Arrayscan V (Thermo). […]

SMILES | ER-alpha MCF7HCS Sinf [%]
CC(C)C(=O)N1[C@H](c2c(F)cc(OCCN3CC(CF)C3)cc2F)c2sc3ccccc3c2C[C@H]1C (relative stereo) [Example 102, 1-((1,3-trans)-1-(2,6-difluoro-4-(2-(3-(fluoromethyl)azetidin-1-yl)ethoxy)phenyl)-3-methyl-3,4-dihydrobenzo[4,5]thieno[2,3-c]pyridin-2(1H)-yl)-2-methylpropan-1-one] | −64.5
C[C@@H]1Cc2c([nH]c3ccccc23)[C@H]2c3c(F)cc(OCCN4CC(CF)C4)cc3OCC(F)(F)CN21 [Example 112, (10R,16bR)-1,7,7-Trifluoro-3-(2-(3-(fluoromethyl)azetidin-1-yl)ethoxy)-10-methyl-7,8,10,11,16,16b-hexahydro-6H-benzo[2′,3′][1,5]oxazocino[5′,4′:1,2]pyrido[3,4-b]indole] | −50
C[C@@H]1Cc2[nH]c3ccccc3c2[C@@H](c2c(F)cc(OCCN3CC(CF)C3)cc2F)N1CC(F)(F)CO (single isomer, unassigned) [Example 147] | −95.7
C[C@@H]1Cc2c([nH]c3ccccc23)[C@@]2(CCc3cc(OCCN4CC(CF)C4)ccc32)N1CC(F)(F)F [Example 115, (1S,3′R)-5-(2-(3-(fluoromethyl)azetidin-1-yl)ethoxy)-3′-methyl-2′-(2,2,2-trifluoroethyl)-2,2′,3,3′,4′,9′-hexahydrospiro [indene-1,1′-pyrido [3,4-b]indole]] | −98
C[C@@H]1Cc2c(oc3ccccc23)[C@@H](c2c(F)cc(NC3CN(CCCF)C3)cc2F)N1CC(F)(F)CO (single isomer, unassigned) [Example 157] | −102
C[C@](F)(CO)CN1CCCc2c([nH]c3ccccc23)[C@H]1c1c(F)cc(OCCN2CC(CF)C2)cc1F [Example 118, (R)-3-((R)-1-(2,6-difluoro-4-(2-(3-(fluoromethyl)azetidin-1-yl)ethoxy)phenyl)-3,4,5,10-tetrahydroazepino[3,4-b]indol-2(1H)-yl)-2-fluoro-2-methylpropan-1-ol] | −95.9
C[C@@H]1CCN(CC(C)(C)F)[C@@H](c2c(F)cc(OCCN3CC(CF)C3)cc2F)c2[nH]c3ccccc3c21 [Example 126, (1S,5R)-1-(2,6-difluoro-4-(2-(3-(fluoromethyl)azetidin-1-yl)ethoxy)phenyl)-2-(2-fluoro-2-methylpropyl)-5-methyl-1,2,3,4,5,10-hexahydroazepino[3,4-b]indole] | −50
C[C@@H]1Cc2c([nH]c3cccnc23)[C@@H](c2c(F)cc(OC3CN(CCCF)C3)cc2F)N1CC(C)(C)F [Example 133, (6R,8R)-6-{2,6-Difluoro-4-[2-(3-fluoromethyl-azetidin-1-yl)-ethoxy]-phenyl}-7-(2-fluoro-2-methyl-propyl)-8-methyl-6,7,8,9-tetrahydro-5H-dipyrido[3,2-b;4′,3′-d]pyrrole] | −94.5
CC(C)C(=O)N1[C@H](c2c(F)cc(OCCN3CC(CF)C3)cc2F)c2oc3ccccc3c2C[C@H]1C (single isomer, unassigned) [Example 101] | −94.5
C[C@@H]1Cc2c([nH]c3ccccc23)[C@]2(CCc3nc(OCCN4CC(CF)C4)ccc32)N1CC(F)(F)F [Example 134, (3′R,5R)-2-(2-(3-(fluoromethyl)azetidin-1-yl)ethoxy)-3′-methyl-2′-(2,2,2-trifluoroethyl)-2′,3′,4′,6,7,9′-hexahydrospiro [cyclopenta[b]pyridine-5,1′-pyrido [3,4-b]indole]] | −96.5
CC(F)(CO)CN1CCCc2c([nH]c3ccccc23)[C@@H]1c1c(F)cc(OCCN2CC(CF)C2)cc1F (stereo partly drawn) [Example 119, 3-((S)-1-(2,6-difluoro-4-(2-(3-(fluoromethyl)azetidin-1-yl)ethoxy)phenyl)-3,4,5,10-tetrahydroazepino[3,4-b]indol-2(1H)-yl)-2-fluoro-2-methylpropan-1-ol] | −95.6
C[C@H]1Cc2[nH]c3ccccc3c2[C@H](c2c(F)cc(NC3CN(CCCF)C3)cc2F)N1CC(F)(F)F [Example 153, N-(3,5-difluoro-4-((1R,3S)-3-methyl-2-(2,2,2-trifluoroethyl)-2,3,4,5-tetrahydro-1H-pyrido[4,3-b]indol-1-yl)-phenyl)-1-(3-fluoropropyl) azetidin-3-amine] | −30
C[C@@H]1Cc2sc3ccccc3c2[C@H](c2ccc(OCCN3CC(CF)C3)cc2)N1CC(C)(C)F (single isomer, unassigned) [Example 130] | −76.8
C[C@@H]1Cc2[nH]c3ccccc3c2[C@@H](c2c(F)cc(NC3CN(CCCF)C3)cc2F)N1CC(F)(F)F [Example 152, N-(3,5-difluoro-4-((1S,3R)-3-methyl-2-(2,2,2-trifluoroethyl)-2,3,4,5-tetrahydro-1H-pyrido[4,3-b]indol-1-yl)-phenyl)-1-(3-fluoropropyl) azetidin-3-amine] | −99
CC(C)(F)CN1[C@H](c2c(F)cc(OCCN3CC(CF)C3)cc2F)c2[nH]c3ccccc3c2[C@H]2CC[C@H]21 [Example 138, (2aR,4R,9cR)-4-(2,6-difluoro-4-(2-(3-(fluoromethyl)azetidin-1-yl)ethoxy)phenyl)-3-(2-fluoro-2-methylpropyl)-2,2a,3,4,5,9c-hexahydro-1H-cyclobuta[5,6]pyrido[3,4-b]indole] | −68
CC1Cc2c(c3ccccc3n2C)C(c2c(F)cc(OCCN3CC(CF)C3)cc2F)N1CC(C)(C)F (racemic) [Example 139, (±)-1-(2-6-difluoro-4-(2-(3-(fluoromethyl)azetidin-1-yl)ethoxy)phenyl)-2-(2-fluoro-2-methylpropyl)-3,5-dimethyl-2,3,4,5-tetrahydro-1H-pyrido[4,3-b] indole] | −88.6
CC(C)(F)CN1CCCc2c([nH]c3ccccc23)[C@H]1c1c(F)cc(OCCN2CC(CF)C2)cc1F [Example 103, (R)-1-(2,6-difluoro-4-(2-(3-(fluoromethyl)azetidin-1-yl)ethoxy)phenyl)-2-(2-fluoro-2-methylpropyl)-1,2,3,4,5,10-hexahydroazepino[3,4-b]indole] | −96.7
C[C@@H]1CCN(CC(C)(C)F)[C@H](c2c(F)cc(OCCN3CC(CF)C3)cc2F)c2[nH]c3ccccc3c21 [Example 123, (1R,5R)-1-(2,6-difluoro-4-(2-(3-(fluoromethyl)azetidin-1-yl)ethoxy)phenyl)-2-(2-fluoro-2-methylpropyl)-5-methyl-1,2,3,4,5,10-hexahydroazepino[3,4-b]indole] | −96.9
